Experiments:
Type in all cases: in vivo
[1] = system: AMARE Amaranthus retroflexus; test: Pre-emergence herbicidal action against harmful plants; settings: visual scoring 3-4 weeks after treatment
Excerpt: (§1) Seeds or rhizome pieces of mono- and dicotyledonous harmful plants are placed in sandy loam in pots of a diameter of 9 to 13 cm and covered with soil. The herbicides, formulated as emulsifiable concentrates or dusts, are applied to the surface of the covering soil in the form of aqueous dispersions or suspensions or emulsions at an application rate of 300 to 800 l of water/ha (converted), at various dosages. For further cultivation of the plants, the pots are then kept in a greenhouse under optimum conditions. The visual scoring of the damage to the harmful plants is carried out 3-4 weeks after the treatment. As shown by the results of these comparative tables, the selected compounds according to the invention have better herbicidal activity against a broad spectrum of economically important mono- and dicotyledonous harmful plants than the compounds disclosed in the prior art.

LOLMU Lolium multiflorum [2] = test: as above; settings: visual scoring 3-4 weeks after treatment
Excerpt: as §1

AVESA [3] = test: as above; settings: 320 g a.i./ha, visual scoring 3-4 weeks after treatment, Comparative Table 6
Excerpt: as §1

SETVI Setaria viridis [4] = test: as above; settings: 320 g a.i./ha, visual scoring 3-4 weeks after treatment, Comparative Table 6
Excerpt: as §1

STEME Stellaria media [5] = test: as above; settings: 80 g a.i./ha, visual scoring 3-4 weeks after treatment, Comparative Table 2
Excerpt: as §1

VERPE Veronica persica [6] = test: as above; settings: 80 g a.i./ha, visual scoring 3-4 weeks after treatment
Excerpt: as §1

[7] = system: XANST Xanthium strumarium; test: Post-emergence herbicidal action against harmful plants; settings: 80 g a.i./ha, scored after 3 to 4 weeks, Comparative Table 11
Experimental: (§2) Seeds of mono- and dicotyledonous harmful plants are placed in sandy loam in cardboard pots, covered with soil and grown in the greenhouse under good growth conditions. Two to three weeks after sowing, the test plants are treated at the three-leaf stage. The compounds according to the invention, which are formulated as wettable powders or as emulsion concentrates, are sprayed at an application rate of 600 to 800 l of water/ha (converted) in a dosage stated in tables 1 to 5 onto the surface of the green plant parts. After the test plants have been left to stand in the greenhouse for 3 to 4 weeks under optimum growth conditions, the action of the compounds according to the invention is scored in comparison to compounds disclosed in the prior art. As shown by the results of these comparison tables, the selected compounds according to the invention have better herbicidal activity against a broad spectrum of economically important mono- and dicotyledonous harmful plants than the compounds disclosed in the prior art.

MATIN Matricaria inodora = test: as above; settings: 80 g a.i./ha, scored after 3 to 4 weeks
Experimental: as §2

VIOTR Viola tricolor [8] = test: as above; settings: 80 g a.i./ha, scored after 3 to 4 weeks
Experimental: as §2

VERPE Veronica persica [9] = test: as above; settings: 80 g a.i./ha, scored after 3 to 4 weeks
Experimental: as §2

GALAP Galium aparine = test: Pre-emergence herbicidal action against harmful plants; settings: 80 g a.i./ha, visual scoring 3-4 weeks after treatment, Comparative Table 8
Excerpt: as §1

[10] = system: POLCO Polygonum convolvulus; test: as above; settings: 80 g a.i./ha, visual scoring 3-4 weeks after treatment, Comparative Table 8
Excerpt: as §1

[11] = system: ECHCG Echinochloa crus galli; test: Post-emergence herbicidal action against harmful plants; settings: scored after 3 to 4 weeks
Experimental: as §2

LOLMU Lolium multiflorum [12] = test: as above; settings: scored after 3 to 4 weeks
Experimental: as §2

[13] = system: DIGSA Digitaria sanguinalis; test: as above; settings: 80 g a.i./ha, scored after 3 to 4 weeks, Comparative Table 10
Experimental: as §2

SETVI Setaria viridis [14] = test: as above; settings: scored after 3 to 4 weeks
Experimental: as §2

STEME Stellaria media [15] = test: as above; settings: Port-emergence, 80 g a.i./ha, scored after 3 to 4 weeks; Comparative Table 5
Experimental: as §2

[16] = system: POLCO Polygonum convolvulus; test: as above; settings: Port-emergence, 80 g a.i./ha, scored after 3 to 4 weeks; Comparative Table 5
Experimental: as §2

[17] = system: ABUTH Abutilon theophrasti; test: as above; settings: Port-emergence, 80 g a.i./ha, scored after 3 to 4 weeks; Comparative Table 4
Experimental: as §2

[18] = system: AMARE Amaranthus retroflexus; test: as above; settings: Port-emergence, 80 g a.i./ha, scored after 3 to 4 weeks; Comparative Table 4
Experimental: as §2

[19] = system: ABUTH Abutilon theophrasti; test: Pre-emergence herbicidal action against harmful plants; settings: 80 g a.i./ha, visual scoring 3-4 weeks after treatment, Comparative Table 1
Excerpt: as §1

[20] = system: ECHCG Echinochloa crus galli; test: as above; settings: 80 g a.i./ha, visual scoring 3-4 weeks after treatment, Comparative Table 1
Excerpt: as §1

AVESA [21] = test: Post-emergence herbicidal action against harmful plants; settings: Port-emergence, scored after 3 to 4 weeks, Comparative Table 7
Experimental: as §2

[22] = system: XANST Xanthium strumarium; test: Pre-emergence herbicidal action against harmful plants; settings: 80 g a.i./ha, visual scoring 3-4 weeks after treatment, Comparative Table 9
Excerpt: as §1

VIOTR Viola tricolor [23] = test: as above; settings: 80 g a.i./ha, visual scoring 3-4 weeks after treatment, Comparative Table 9
Excerpt: as §1

[24] = 320 g a.i./ha, Comparative Table 6
[25] = 80 g a.i./ha, Comparative Table 2
[26] = Post-emergence, Comparative Table 11
[27] = 80 g a.i./ha, Comparative Table 8
[28] = Post-emergence, 80 g a.i./ha, Comparative Table 10
[29] = Port-emergence, Comparative Table 5
[30] = Post-emergence, 80 g a.i./ha, Comparative Table 3
[31] = Port-emergence, Comparative Table 4
[32] = 80 g a.i./ha, Comparative Table 1
[33] = Port-emergence, 80 g a.i./ha, Comparative Table 7
[34] = Port-emergence, 320 g a.i./ha, Comparative Table 7

Compound: Cc1c(C(=O)c2cnn(C)c2O)ccc(C(F)(F)F)c1F
- Activity against harmful plants AMARE [1, 24]: 50%
- Activity against harmful plants LOLMU (LOLMU Lolium multiflorum [2]; [24]): 20%
- Activity against harmful plants AVESA (AVESA [3]): 20%
- Activity against harmful plants SETVI (SETVI Setaria viridis [4]): 20%

Compound: Cc1c(C(=O)c2cnn(C)c2O)ccc(C(F)(F)F)c1S(C)(=O)=O [drawing 25]
- Activity against harmful plants AMARE [1, 24]: 100%
- Activity against harmful plants LOLMU (LOLMU Lolium multiflorum [2]; [24]): 90%
- Activity against harmful plants AVESA (AVESA [3]): 90%
- Activity against harmful plants SETVI (SETVI Setaria viridis [4]): 100%

Compound: CCn1ncc(C(=O)c2ccc(C(F)(F)F)c(S(C)(=O)=O)c2C)c1O [drawing 17]
- Activity against harmful plants STEME (STEME Stellaria media [5]): 90%
- Activity against harmful plants VERPE (VERPE Veronica persica [6]; Comparative Table 2): 90%
- Activity against harmful plants AMARE [1, 25]: 90%

Compound: CCn1ncc(C(=O)c2ccc(C(F)(F)F)c(S(C)(=O)=O)c2C)c1O [drawing 35]
- Activity against harmful plants XANST [7]: 100%
- Activity against harmful plants MATIN (MATIN Matricaria inodora; [26]): 90%
- Activity against harmful plants VIOTR (VIOTR Viola tricolor [8]; [26]): 80%
- Activity against harmful plants VERPE (VERPE Veronica persica [9]; [26]): 90%

Compound: CCn1ncc(C(=O)c2ccc(S(C)(=O)=O)c(S(C)(=O)=O)c2C)c1O [drawing 30]
- Activity against harmful plants GALAP (GALAP Galium aparine): 60%
- Activity against harmful plants LOLMU (LOLMU Lolium multiflorum [2]; [27]): 0%
- Activity against harmful plants POLCO [10]: 30%

Compound: CCn1ncc(C(=O)c2ccc(S(C)(=O)=O)c(S(C)(=O)=O)c2C)c1O [drawing 34]
- Activity against harmful plants ECHCG [11, 28]: 80%
- Activity against harmful plants LOLMU (LOLMU Lolium multiflorum [12]; [28]): 20%
- Activity against harmful plants DIGSA [13]: 80%
- Activity against harmful plants SETVI (SETVI Setaria viridis [14]; [28]): 80%

Compound: CCn1ncc(C(=O)c2ccc(C(F)(F)F)c(F)c2C)c1O [drawing 24]
- Activity against harmful plants STEME (STEME Stellaria media [15]): 0%
- Activity against harmful plants VIOTR (VIOTR Viola tricolor [8]; [29]): 0%
- Activity against harmful plants VERPE (VERPE Veronica persica [9]; [29]): 0%
- Activity against harmful plants POLCO [16]: 60%

Compound: CCn1ncc(C(=O)c2ccc(C(F)(F)F)c(S(C)(=O)=O)c2C)c1O [drawing 33]
- Activity against harmful plants ECHCG [11, 28]: 90%
- Activity against harmful plants LOLMU (LOLMU Lolium multiflorum [12]; [28]): 60%
- Activity against harmful plants DIGSA [13]: 100%
- Activity against harmful plants SETVI (SETVI Setaria viridis [14]; [28]): 100%

Compound: CCn1ncc(C(=O)c2ccc(C(F)(F)F)c(S(C)(=O)=O)c2C)c1O [drawing 19]
- Activity against harmful plants ECHCG [11, 30]: 90%
- Activity against harmful plants LOLMU (LOLMU Lolium multiflorum [12]; [30]): 60%
- Activity against harmful plants SETVI (SETVI Setaria viridis [14]; [30]): 100%

Compound: CCn1ncc(C(=O)c2ccc(C(F)(F)F)c(S(C)(=O)=O)c2C)c1O [drawing 21]
- Activity against harmful plants ABUTH [17]: 90%
- Activity against harmful plants MATIN (MATIN Matricaria inodora; [31]): 90%
- Activity against harmful plants AMARE [18]: 100%

Compound: CCn1ncc(C(=O)c2ccc(C(F)(F)F)c(S(C)(=O)=O)c2C)c1O [drawing 15]
- Activity against harmful plants ABUTH [19]: 100%
- Activity against harmful plants ECHCG [20]: 100%
- Activity against harmful plants LOLMU (LOLMU Lolium multiflorum [2]; [32]): 70%

Compound: CCn1ncc(C(=O)c2ccc(C(F)(F)F)c(F)c2C)c1O [drawing 16]
- Activity against harmful plants ABUTH [19]: 0%
- Activity against harmful plants ECHCG [20]: 30%
- Activity against harmful plants LOLMU (LOLMU Lolium multiflorum [2]; [32]): 0%

Compound: CCn1ncc(C(=O)c2ccc(C(F)(F)F)c(F)c2C)c1O [drawing 18]
- Activity against harmful plants STEME (STEME Stellaria media [5]): 40%
- Activity against harmful plants VERPE (VERPE Veronica persica [6]; Comparative Table 2): 0%
- Activity against harmful plants AMARE [1, 25]: 0%

Compound: CCn1ncc(C(=O)c2ccc(C(F)(F)F)c(S(C)(=O)=O)c2C)c1O [drawing 23]
- Activity against harmful plants STEME (STEME Stellaria media [15]): 90%
- Activity against harmful plants VIOTR (VIOTR Viola tricolor [8]; [29]): 80%
- Activity against harmful plants VERPE (VERPE Veronica persica [9]; [29]): 90%
- Activity against harmful plants POLCO [16]: 100%

Compound: Cc1c(C(=O)c2cnn(C)c2O)ccc(C(F)(F)F)c1S(C)(=O)=O [drawing 27]
- Activity against harmful plants ECHCG [11, 33]: 90%
- Activity against harmful plants LOLMU (LOLMU Lolium multiflorum [12]; [33]): 80%
- Activity against harmful plants AVESA (AVESA [21]; 80 g a.i./ha): 70%
- Activity against harmful plants SETVI (SETVI Setaria viridis [14]; [33]): 90%

Compound: Cc1c(C(=O)c2cnn(C)c2O)ccc(C(F)(F)F)c1Cl
- Activity against harmful plants ECHCG [11, 34]: 0%
- Activity against harmful plants LOLMU (LOLMU Lolium multiflorum [12]; [34]): 20%
- Activity against harmful plants AVESA (AVESA [21]; 320 g a.i./ha): 20%
- Activity against harmful plants SETVI (SETVI Setaria viridis [14]; [34]): 30%

Compound: CCn1ncc(C(=O)c2ccc(C(F)(F)F)c(S(C)(=O)=O)c2C)c1O [drawing 31]
- Activity against harmful plants XANST [22]: 100%
- Activity against harmful plants VIOTR (VIOTR Viola tricolor [23]): 90%
- Activity against harmful plants VERPE (VERPE Veronica persica [6]; Comparative Table 9): 90%

Compound: CCn1ncc(C(=O)c2ccc(C(F)(F)F)c(F)c2C)c1O [drawing 22]
- Activity against harmful plants ABUTH [17]: 80%
- Activity against harmful plants MATIN (MATIN Matricaria inodora; [31]): 0%
- Activity against harmful plants AMARE [18]: 0%

Compound: CCn1ncc(C(=O)c2ccc(S(C)(=O)=O)c(S(C)(=O)=O)c2C)c1O [drawing 36]
- Activity against harmful plants XANST [7]: 70%
- Activity against harmful plants MATIN (MATIN Matricaria inodora; [26]): 40%
- Activity against harmful plants VIOTR (VIOTR Viola tricolor [8]; [26]): 50%
- Activity against harmful plants VERPE (VERPE Veronica persica [9]; [26]): 80%

Compound: CCn1ncc(C(=O)c2ccc(S(C)(=O)=O)c(S(C)(=O)=O)c2C)c1O [drawing 32]
- Activity against harmful plants XANST [22]: 40%
- Activity against harmful plants VIOTR (VIOTR Viola tricolor [23]): 20%
- Activity against harmful plants VERPE (VERPE Veronica persica [6]; Comparative Table 9): 80%

Compound: CCn1ncc(C(=O)c2ccc(C(F)(F)F)c(F)c2C)c1O [drawing 20]
- Activity against harmful plants ECHCG [11, 30]: 0%
- Activity against harmful plants LOLMU (LOLMU Lolium multiflorum [12]; [30]): 0%
- Activity against harmful plants SETVI (SETVI Setaria viridis [14]; [30]): 0%

Compound: CCn1ncc(C(=O)c2ccc(C(F)(F)F)c(S(C)(=O)=O)c2C)c1O [drawing 29]
- Activity against harmful plants GALAP (GALAP Galium aparine): 80%
- Activity against harmful plants LOLMU (LOLMU Lolium multiflorum [2]; [27]): 70%
- Activity against harmful plants POLCO [10]: 50%

From patent US7932211B2, “4-(4-trifluoromethyl-3-thiobenzoyl)pyrazoles and their use as herbicides” (Bayer Cropscience AG, priority 2007, dated 2011)
